# Counter-ions that a name gives are not always drawn.
# B1: G-CSF: recombinant granulocyte-colony stimulating factor (protein, UniProt P09919 31-207, looked up)
# Granulocyte …: TPLGPASSLPQSFLLKCLEQVRKIQGDGAALQEKLVSECATYKLCHPEELVLLGHSLGIPWAPLSSCPSQALQLAGCLSQLHSGLFLYQGLLQALEGISPELGPTLDTLQLDVADFATTIWQQMEELGMAPALQPTQGAMPAFASAFQRRAGGVLVASHLQSFLEVSYRVLRHLAQP
# Legend:
# WBC in peripheral blood = assay: PB white blood cell / lymphocyte content after mobilization; type: in vivo, mice; settings: for WBC counts: peripheral blood after administration
# Procedure: (§1) For mobilization experiments, all mice received subcutaneous injections at 100 μl/10 gm body weight and PB was harvested by throat bleed using EDTA coated syringes.
# (§2) Mice received subcutaneous injections at 100 μl/10 gm body weight of a single injection of BOP (up to 15 mg/kg) for various timeframes, a single BIO5192 injection at 1 mg/kg for 1 hour, a single AMD3100 injection at 3 mg/kg for 1 hour (mice also receiving BOP or BIO15192 were injected with a single dose of BOP or BIO15192 1 hour prior to harvest), or G-CSF at 250 μg/kg twice daily (500 μg/kg/day), 6-8 hours apart for 4 consecutive days (mice also receiving BOP and/or AMD3100 were injected with a single dose of BOP and/or AMD3100 1 h prior to harvest). Control mice received an equivalent volume of saline or 10% HPβCD/saline where appropriate.
# LPP-CFC and HPP-CFC = assay: Low- and high-proliferative potential colony-forming cell assays of mobilized PB; set-up: species or system mice; settings: mouse, in vivo
# Procedure: Low- and high-proliferative potential colony-forming cells (LPP-CFC and HPP-CFC, respectively) were assayed as previously described in J. Grassinger et al Cytokine, 2012, 58, 218-225 and Bartelmez, S. H. et al Experimental hematology 17, 240-245 (1989). Briefly, mobilized PB were lysed and 4000 WBCs were plated in 35 mm Petri dishes in a double-layer nutrient agar culture system containing recombinant mouse stem cell factor and recombinant human colony-stimulating factor-1, interleukin-1α (IL-1α), and IL-3. Cultures were incubated at 37° C. in a humidified incubator at 5% O2, 10% CO2, 85% N2. LPP-CFC and HPP-CFC were enumerated at 14 days of incubation as previously described in J. Grassinger, et al (2012).
# [1] = test system: human WBC and human CD34+ stem and progenitors; assay: Mobilization of humanised NSG (huNSG) mice; type: in vivo; settings: single dose, G-CSF multiple doses for 4-days
# Text: Humanised NSG mice were generated by tail vein injection of freshly sorted cord blood CD34^+ cells (>150 k) with 2×10^6 irradiated mononuclear support cells. After 4-weeks post-transplantation, NSG mice were eyebled and assessed for huCD45 and muCD45. Under these conditions, >90% humanisation was achieved as determined by flow cytometric analysis based on % huCD45 relative to total % CD45. Humanised NSG mice were given at least 1 week to recover prior to experimentation. Mice were mobilized under the relevant conditions specified in “Mobilization protocols” and PB subsequently collected by throatbleed, lysed and immunolabelled as described in “Antibody cocktails”.
# as §2
# [2] = test system: progenitors (LSK) and HSC (LSKSLAM) in peripheral blood; assay: HSC mobilization to peripheral blood in mice; type: in vivo
# Procedure: as §1
# (a) R-BC154 (IXb) and BOP. Mice received a single injection of freshly prepared solutions of R-BC154 (IXb) and BOP in saline at the doses indicated before PB was harvested by throat bleed at the times indicated.
# (b) G-CSF. Mice received G-CSF at 250 μg/kg twice daily (500 ug/kg/day), 6-8 hours apart for 4 consecutive days. Groups receiving G-CSF and BOP received the standard G-CSF regime as described above followed by a single injection of BOP 1 h prior to harvest. Control mice received an equal volume of saline.
# as §2
# [3] = test system: cord blood (CB) mononuclear cells (MNC); assay: R-BC154 (IXb) binding to cord blood mononuclear cell populations, flow cytometry; type: cell-based, human; settings: R-BC154 (100 nM) in the presence of excess selective α4β1 antagonist BIO5192 (1 μM) or dual α4β1/α9β1 antagonist BOP (1 μM)
# Procedure: For in vitro labelling experiments, 5×10^6 BM cells from C57 mice, conditional α4^−/−/α9^−/− mice and humanised NODSCIDIL2Rγ^−/− mice and human cord blood MNCs were treated with R-BC154 (IXb) (up to 300 nM) in PBS (0.5% BSA) or TBS (0.5% BSA) containing either 1 mM CaCl2/MgCl2 (activating) or 10 mM EDTA (deactivating) at 40×10^6 cells/ml for 20 mins at 4° C. Cells were washed with cold PBS (2% FBS) and then immunolabelled as described in “Antibody Cocktails” prior to flow cytometric analysis. For in vivo experiments, C57BL/6 mice, α4^−/−/α9^−/− vav-cre mice and humanised NODSCIDIL2Rγ^−/− mice received either intravenous or subcutaneous injections of R-BC154 (IXb) (5-10 mg/kg) at 100 ul/10 gm mouse weight and analysed as described above.
# (§3) For the assessment of α9β1 contribution to R-BC154 (IXb) binding, human and murine cells were stained with R-BC154 (100 nM) in the absence of competing antagonist or in the presence of excess amounts of the selective α4β1 antagonist BIO5192 (1 μM) or dual α4β1/α9β1 antagonist BOP (1 μM) in PBS containing 0.5% BSA and 1 mM CaCl2MgCl2 at 0° C. for 30 min. Cells were washed, immunolabelled as described above and analysed by flow cytometry. The contribution of α9β1 binding was calculated by measuring the difference in MFI between R-BC154 (IXb)+BIO5192 and +BOP and expressed as a % of R-BC154 (IXb) alone.
# α4β1 = α4β1 (Homo sapiens, UniProt P05556+P13612); settings: cited from earlier work
# Chain of α4β1 (P13612 34-1032): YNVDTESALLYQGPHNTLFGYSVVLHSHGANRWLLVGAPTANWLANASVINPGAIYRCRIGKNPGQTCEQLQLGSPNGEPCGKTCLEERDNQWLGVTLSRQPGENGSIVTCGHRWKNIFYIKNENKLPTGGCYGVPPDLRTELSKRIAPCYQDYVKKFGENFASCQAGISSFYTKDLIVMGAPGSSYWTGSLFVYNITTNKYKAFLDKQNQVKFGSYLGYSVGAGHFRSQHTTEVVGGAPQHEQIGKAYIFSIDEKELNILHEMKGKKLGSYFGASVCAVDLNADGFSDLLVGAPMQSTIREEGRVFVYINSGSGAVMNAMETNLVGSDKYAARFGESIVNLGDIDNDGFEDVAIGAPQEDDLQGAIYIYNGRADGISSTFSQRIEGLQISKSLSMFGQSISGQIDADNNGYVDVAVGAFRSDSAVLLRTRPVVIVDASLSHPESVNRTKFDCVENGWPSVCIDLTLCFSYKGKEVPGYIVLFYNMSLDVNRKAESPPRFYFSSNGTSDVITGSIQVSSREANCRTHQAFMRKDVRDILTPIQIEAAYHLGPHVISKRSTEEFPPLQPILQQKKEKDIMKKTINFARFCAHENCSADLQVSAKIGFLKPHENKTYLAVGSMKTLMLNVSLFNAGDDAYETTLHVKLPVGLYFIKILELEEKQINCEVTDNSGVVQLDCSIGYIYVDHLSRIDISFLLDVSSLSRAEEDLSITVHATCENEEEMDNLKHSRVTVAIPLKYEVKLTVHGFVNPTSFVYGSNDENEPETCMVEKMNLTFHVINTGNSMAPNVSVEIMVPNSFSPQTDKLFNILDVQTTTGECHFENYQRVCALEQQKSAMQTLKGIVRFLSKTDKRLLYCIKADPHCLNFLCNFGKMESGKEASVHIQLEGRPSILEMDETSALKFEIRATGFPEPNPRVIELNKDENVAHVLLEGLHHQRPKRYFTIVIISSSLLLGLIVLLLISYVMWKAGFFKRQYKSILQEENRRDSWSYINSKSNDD
# Chain of α4β1 (P05556 21-798): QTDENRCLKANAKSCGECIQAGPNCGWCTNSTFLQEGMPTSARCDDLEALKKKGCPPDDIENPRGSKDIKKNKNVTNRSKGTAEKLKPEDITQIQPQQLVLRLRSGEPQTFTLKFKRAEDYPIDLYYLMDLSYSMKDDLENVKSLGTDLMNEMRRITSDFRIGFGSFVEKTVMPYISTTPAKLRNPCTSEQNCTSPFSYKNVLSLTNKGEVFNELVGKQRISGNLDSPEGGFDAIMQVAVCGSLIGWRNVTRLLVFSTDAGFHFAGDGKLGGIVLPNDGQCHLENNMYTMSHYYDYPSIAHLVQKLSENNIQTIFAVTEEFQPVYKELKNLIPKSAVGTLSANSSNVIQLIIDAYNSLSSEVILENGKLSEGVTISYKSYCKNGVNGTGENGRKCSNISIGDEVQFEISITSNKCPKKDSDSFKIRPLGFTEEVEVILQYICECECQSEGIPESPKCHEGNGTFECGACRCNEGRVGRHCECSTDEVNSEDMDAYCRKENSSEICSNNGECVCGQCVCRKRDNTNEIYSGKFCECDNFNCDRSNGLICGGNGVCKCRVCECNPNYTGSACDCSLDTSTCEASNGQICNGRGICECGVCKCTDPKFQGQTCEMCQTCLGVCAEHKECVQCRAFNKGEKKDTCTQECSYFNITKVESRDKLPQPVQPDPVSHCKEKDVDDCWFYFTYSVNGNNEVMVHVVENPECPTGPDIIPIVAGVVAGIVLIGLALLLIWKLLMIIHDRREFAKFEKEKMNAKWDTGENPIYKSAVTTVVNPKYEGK
# α9β1 = molecular target: T1, α9β1 (Homo sapiens, UniProt P05556+Q13797); assay: Inhibition of R-BC154 (IXb) binding, transduced LN18 cells and CHO cells, flow cytometry; set-up: species or system human and murine; settings: R-BC154 100 nM, antagonist 1 μM, 1 mM CaCl2MgCl2, 0° C. 30 min
# T1 construct: expressed in transfected cells; host or cells: LN18 (ATCC CRL-2610), retrovirally transduced; endogenous α4 silenced with pSM2c-shITGA4
# T1 sequence (Q13797 30-1035): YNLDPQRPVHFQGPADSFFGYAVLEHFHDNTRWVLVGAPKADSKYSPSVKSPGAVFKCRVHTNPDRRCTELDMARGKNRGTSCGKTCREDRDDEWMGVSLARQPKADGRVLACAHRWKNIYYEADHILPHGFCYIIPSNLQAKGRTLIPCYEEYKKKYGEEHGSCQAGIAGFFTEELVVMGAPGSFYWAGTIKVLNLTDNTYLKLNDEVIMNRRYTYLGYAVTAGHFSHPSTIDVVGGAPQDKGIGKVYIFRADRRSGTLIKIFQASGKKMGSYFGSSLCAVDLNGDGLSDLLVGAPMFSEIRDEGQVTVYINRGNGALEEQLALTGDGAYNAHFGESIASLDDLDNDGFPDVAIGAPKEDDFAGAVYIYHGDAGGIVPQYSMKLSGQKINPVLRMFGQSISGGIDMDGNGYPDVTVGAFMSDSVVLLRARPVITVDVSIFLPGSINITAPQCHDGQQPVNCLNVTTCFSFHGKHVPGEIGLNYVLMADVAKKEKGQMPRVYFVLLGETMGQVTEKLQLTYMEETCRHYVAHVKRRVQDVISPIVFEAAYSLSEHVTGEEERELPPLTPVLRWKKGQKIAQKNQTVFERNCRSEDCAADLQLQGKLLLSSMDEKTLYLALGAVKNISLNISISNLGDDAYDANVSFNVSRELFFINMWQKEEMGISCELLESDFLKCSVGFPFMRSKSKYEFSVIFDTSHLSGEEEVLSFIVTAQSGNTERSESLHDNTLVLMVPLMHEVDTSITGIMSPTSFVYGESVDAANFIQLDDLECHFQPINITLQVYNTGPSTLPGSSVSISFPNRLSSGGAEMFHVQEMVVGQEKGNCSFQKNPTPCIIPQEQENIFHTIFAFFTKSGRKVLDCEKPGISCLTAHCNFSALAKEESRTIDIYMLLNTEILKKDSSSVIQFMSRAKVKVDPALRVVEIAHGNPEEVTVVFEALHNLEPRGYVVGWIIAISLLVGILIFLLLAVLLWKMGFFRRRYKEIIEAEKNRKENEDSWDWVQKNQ
# T1 sequence (P05556 21-798): as the sequence (P05556 21-798) above
# Procedure: as §3
# endosteal LSK = assay: In vivo BOP binding to endosteal versus central progenitors; set-up: species or system mice; settings: mouse
# Text: Data is pooled from two independent experiments. n>6 (e) Analysis of in vivo BOP binding to endosteal versus central progenitors (LSK) and HSC (LSKSLAM) following the administration of BOP alone or BOP in combination with AMD3100. […] P<0.05
# α4β1 or α9β1 LN18 cells = settings: Pepinsky et al (2002); cited from earlier work
# α9β1 integrin = α9β1 integrin (Homo sapiens, UniProt P05556+Q13797); assay: Inhibition of integrin binding to VCAM-1 and Opn in vitro
# Chain of α9β1 integrin (Q13797 30-1035): as the sequence (Q13797 30-1035) above
# Chain of α9β1 integrin (P05556 21-798): as the sequence (P05556 21-798) above
# α4β1 integrin = α4β1 integrin (Homo sapiens, UniProt P05556+P13612); assay: as above
# Chain of α4β1 integrin (P13612 34-1032): as the sequence (P13612 34-1032) above
# Chain of α4β1 integrin (P05556 21-798): as the sequence (P05556 21-798) above
molecule,measurement,setting,value
"c1cc(CN2CCCNCCNCCCNCC2)ccc1CN1CCCNCCNCCCNCC1 [AMD3100, I,r-[I,4-Phenylenebis(methylene)]bis [1,4,8,11-tetraazacyclotetradecane]octohydrobromide dehydrate, reference compound]",WBC counts,WBC in peripheral blood,7.8±1.5 ×10^6/ml
same,HPP-CFC content of mobilized PB relative to the saline control,LPP-CFC and HPP-CFC,greater
same,LPP-CFC content of mobilized PB relative to the saline control,LPP-CFC and HPP-CFC,greater
same,increase in PB human WBC or human CD34 stem and progenitors,[1],did not result in a significant increase
same,increase in the proportion of progenitors (LSK cells) in the PB relative to BOP,"[2]; mouse, in vivo",comparable increases
"Cc1ccccc1NC(=O)Nc1ccc(CC(=O)N(C)[C@@H](CC(C)C)C(=O)NCC[C@H](NC(=O)[C@@H]2CCCN2S(=O)(=O)c2cc(Cl)cc(Cl)c2)C(=O)O)cc1 [BIO5192, reference compound]",inhibition of R-BC154 (IXb) binding to CB HSC and progenitors,[3],partial inhibition
same,inhibition of R-BC154 (IXb) binding to CB lineage committed cells,[3],complete inhibition
same,Kd,α4β1,< 0.01 nM
same,inhibition of R-BC154 (IXb) binding to α9β1,α9β1,did not inhibit
same,"increases in WBC counts, progenitors (LSK) and HSC (LSKSLAM) in the PB","[2]; Intravenous administration, alone",moderate increases
"O=C(O)[C@H](Cc1ccc(OC(=O)N2CCCC2)cc1)NC(=O)[C@@H]1CCCN1S(=O)(=O)c1ccccc1 [BOP, N-(Benzenesulfonyl)-L-prolyl-L-O-(1-pyrrolidinylcarbonyl)tyrosine]",binding of BOP to endosteal LSK relative to their central counterparts in vivo,endosteal LSK,significantly greater binding of BOP
same,WBC counts,WBC in peripheral blood,7.0±0.8 ×10^6/ml
same,total PB lymphocytes decreased to baseline,WBC in peripheral blood; single dose,≤ 18 h
same,inhibition of R-BC154 (IXb) binding to all CB cell populations,[3],complete inhibition
same,off-rates for α9β1 compared to α4β1,α4β1 or α9β1 LN18 cells,significantly reduced off-rates
same,"inhibitory potency, α9β1 binding to VCAM-1 and Opn",α9β1 integrin,nanomolar inhibitory potencies
same,"inhibitory potency, α4β1 binding to VCAM-1 and Opn",α4β1 integrin,nanomolar inhibitory potencies
same,HPP-CFC content of mobilized PB relative to the saline control,LPP-CFC and HPP-CFC,greater
same,LPP-CFC content of mobilized PB relative to the saline control,LPP-CFC and HPP-CFC,greater
same,increase in PB human WBC or human CD34 stem and progenitors,[1],did not result in a significant increase
same,inhibition of R-BC154 (IXb) binding to α9β1,α9β1,> 95%
same,time of peak PB HSC,"[2]; mouse, in vivo",1 h
same,increase in the proportion of HSC (LSKSLAM cells) in the PB relative to AMD3100,[2]; p<0.05,significantly greater increase
same,increase in PB progenitors (LSK) and HSC (LSKSLAM),"[2]; single agent, single dose","rapid, significant and dose dependent increase"
same,return of PB progenitors and HSC to baseline post-administration,[2]; single dose,≤ 4 h
same,time of peak PB progenitors and HSC after a single dose,[2]; subcutaneous,60 min
B1,increase in PB human WBC or human CD34 stem and progenitors,[1],did not result in a significant increase
same,"progenitors mobilized, G-CSF alone versus single dose of BOP and AMD3100",[2]; 4-days of G-CSF,significantly greater number of progenitors

# From patent publication US20170340693A1, “DISLODGEMENT AND RELEASE OF HSC USING ALPHA 9 INTEGRIN ANTAGONIST AND CXCR4 ANTAGONIST” (COMMONWEALTH SCIENTIFIC AND INDUSTRIAL RESEARCH ORGANISATION, priority 2014, published 2017)
